Laboratory results taken from patent publication US7202270B2, “Convenient stable non-hygroscopic crystalline solid forms of racemic and chiral LA-plus salts: process for their manufacture and uses” (priority 2003, dated 2007).
Where a name gives a salt, the structure may show the parent alone.

How the values were obtained:
[1] = Hygroscopicity of the solid salt; assay type: physicochemical; conditions: solid salt form
[2] = Antioxidant assay by DPPH radical scavenging activity; assay type: biochemical
[3] = biological target: Collagenase; experiment: Collagenase inhibition; assay type: biochemical
[4] = biological target: Elastase; experiment: Elastase inhibition; assay type: biochemical
[5] = system: Propionibacterium acnes; experiment: Inhibition of P. acnes (zone of inhibition); assay type: cell-based; conditions: for Zone of inhibition: P. acnes
[6] = Solubility data; assay type: physicochemical; conditions: Results in gm/dl; 35 to 40° C.
Protocol: Results in gm/dl; tests were done at 35 to 40° C. temperature.

[7] = system: Tyrosinase; experiment: Activity on Tyrosinase (inhibition); assay type: biochemical
Excerpt: Tyrosinase inhibition is one of the established in vitro methods of evaluating the skin fairness property.

[8] = Absence of sun light, Conc. 6.6 mg
[9] = Exposure to sun light for 5 minutes, Conc. 55 μg

SMILES	melting point [°C]	IC50 for Collagenase [3] [µg/mL]	IC50 for Elastase [4] [µg/mL]	Minimum concentration showing inhibition of P. acnes [5] [%]	Zone of inhibition ([5]; Conc. of the sample 0.5%) [mm]	Zone of inhibition ([5]; Conc. of the sample 1%) [mm]	Zone of inhibition ([5]; Conc. of the sample 2%) [mm]	Zone of inhibition ([5]; Conc. of the sample 5%) [mm]	Zone of inhibition ([5]; Conc. of the sample 10%) [mm]	% Scavenging (DPPH) [2, 9] [%]	Solubility, ETHANOL (95%) [6] [%]	Solubility, PROPYLENE GLYCOL [6] [%]	Solubility, WATER (D. D.) [6] [%]	Tyrosinase % Inhibition ([7]; Conc. 120 μg) [%]	also measured
CN(C)CCNC(=O)CCCCC1CCSS1 (racemic) (as salt: maleate) [LA Plus maleate, (±)-Maleate salt of N-[2-(dimethylamino)ethyl]-1,2-dithiolane-3-pentanamide]	125 to 127	–	–	–	–	–	–	–	–	–	–	–	–	–	–
CN(C)CCNC(=O)CCCCC1CCSS1.Cl (racemic) [(±)-LA-Plus hydrochloride, N-[2-(dimethylamino)ethyl]-1,2-dithiolane-3-pentanamide monohydrochloride]	–	–	–	–	–	–	–	–	–	–	–	–	–	–	Hygroscopicity [1]: hygroscopic
O=C1O[C@H]([C@@H](O)CO)C(O)=C1O [Ascorbic acid, reference compound]	–	–	–	–	–	–	–	–	–	–	–	–	–	–	% Scavenging (DPPH) ([2]; Absence of sun light, Conc. 6 μg): 71%; % Scavenging (DPPH) ([2]; Exposure to sun light for 5 minutes, Conc. 6 μg): 59%
CN(C)CCNC(=O)CCCCC1CCSS1.O=C(O)/C=C\C(=O)O (stereo not drawn) [R(+)LA Plus maleate, R-(+)-Maleate salt of N-[2-(dimethylamino)ethyl]-1,2-dithiolane-3-pentanamide]	125 to 127	1600	1400	1.0	0	8	10	12	15	47	6.84	10	60	58.6	% Scavenging (DPPH) [2, 8]: 49%
O=C(O)CCCCC1CCSS1 (racemic) [α-Lipoic acid, Alpha Lipoic acid, reference compound]	–	1600	1400	5	0	0	0	7	8	–	–	–	–	–	% Scavenging (DPPH) ([2]; Absence of sun light, Conc. 6 mg): 50%; % Scavenging (DPPH) ([2]; Exposure to sun light for 5 minutes, Conc. 45 μg): 50%; Tyrosinase % Inhibition ([7]; Conc. 100 μg): 51%
CN(C)CCNC(=O)CCCCC1CCSS1.O=C(O)/C=C/C(=O)O (racemic) [LA Plus fumarate, (±)-Fumarate salt of N-[2-(dimethylamino)ethyl]-1,2-dithiolane-3-pentanamide]	76 to 78	1600	1400	2	0	0	7	8	10	50	51	23	100	53	% Scavenging (DPPH) ([2]; Absence of sun light, Conc. 6.2 mg): 57%
CN(C)CCNC(=O)CCCCC1CCSS1 (racemic) [LA Plus maleate, (±)-Maleate salt of N-[2-(dimethylamino)ethyl]-1,2-dithiolane-3-pentanamide]	–	1600	1400	1.0	0	7	8	9	11	53	7.35	13	60	58	% Scavenging (DPPH) [2, 8]: 54%
CCC[C@@H]1C[C@@H](C(=O)N[C@@H]([C@H]2O[C@H](SC)[C@H](O)[C@@H](O)[C@H]2O)[C@H](C)Cl)N(C)C1 [Clindamycin, reference compound]	–	–	–	–	0	7	9	15	20	–	–	–	–	–	–
